Source: US7395112B2, “Method and apparatus for treating tumors using low strength electric fields” (priority 2002, dated 2008)

Tests used:
[1] = tested on: DA3 mammary adenocarcinoma; assay: LEFCT-EC in mice bearing DA3 mammary adenocarcinoma; type: in vivo, BALB/c mice
Experimental: Animals: BALB/c female mice between the ages of 8 to 12 weeks obtained from the breeding colony of Tel-Aviv University, Israel were used in vivo tumor therapy experiments. Animal care and experimentation was carried out in accordance with Tel-Aviv University guidelines.
Tumor cell line: The highly metastatic, poorly immunogenic mammary adenocarcinoma cell line DA3 (Lopez D M. et al., 1981. J Natl Cancer Inst. 66:191) was used to generate mammary carcinoma tumors in mice. Cells were grown in DMEM supplemented with 100 U/ml penicillin, 100 μg/ml streptomycin, 4 mM glutamine, 1 mM sodium pyruvate, 1% non-essential amino acids and 10% heat-inactivated fetal calf serum (FCS), and cultured at 37° C. in a humidified incubator in an atmosphere of 7% carbon dioxide and 93% air. Tumors of this cell line grown to 1 cm in diameter produce metastatic cells, mainly in the lungs.
Reagents: Taxol (Mead Johnson Oncology Products, A Bristol-Myers Squibb, USA), obtained as a sterile nonpyrogenic solution containing 6 mg/ml paclitaxel, 527 mg/ml of purified Cremophor EL (polyoxyethylated castor oil) and 49.7% (v/v) dehydrated ethanol; and bleomycin (MegaPharm, Israel) were the anti cancer drugs used.
Low-strength electric field enhanced cancer chemotherapy protocol: Mice were subjected to a single treatment of LEF-chemotherapy, once primary tumors reached 5 mm in diameter (about 60-70 mm^3) (11-17 days following subcutaneous tumor cell inoculation). Up to 100 μl of chemotherapeutic agents was injected into the tumor loci. The exposure to electric field was carried out as described above in Example 2 of the Examples section.
Effect of LEFCT-EC using bleomycin or taxol on the survival of DA3 mammary adenocarcinoma bearing nice: BALB/c mice bearing DA3 mammary adenocarcinoma were treated by LEF-chemotherapy with intratumoral taxol (20 mg/kg) (FIG. 19) or bleomycin (30 U/kg) (FIG. 20) administration and their survival rate was compared with that of mice treated only with LEF or chemotherapy.

CT-26 colon carcinoma = assay: LEF with chemotherapy (LEFCT-EC) in mice bearing 5 mm CT-26 tumors; type: in vivo, BALB/C mice
Experimental: Mice: BALB/C male mice were obtained from the breeding colony of Tel-Aviv University, Israel. Mice were used at 8-12 weeks of age. Animal care and experimentation were performed in accordance with the Tel-Aviv University guidelines.
Tumor: Colon carcinoma tumors were grown in mice with CT-26, a metastatic colon carcinoma cell line induced in a BALB/c mouse by chemical carcinogenesis. Cells were cultured in Dulbecco's modified Eagle's medium (DMEM) supplemented with 100 U/ml penicillin, 100 μg/ml streptomycin, 2 mM L-glutamine; 1 mM sodium pyruvate; 1% non-essential amino acid solution; 10% heat-inactivated fetal calf serum. Cultures were maintained at 37° C. in a humidified incubator with a 5% CO2 atmosphere.
Tumor cell inoculation: Mice were inoculated intracutaneously with 10^5 CT-26 cells suspended in 100 μL PBS into the low lateral side of the back. Local tumor growth was determined by measuring three mutually orthogonal tumor diameters with a caliper. The volume of tumor was calculated using the formula: Vol=D1×D2×D3×π/6, where D1, D2, D3 are three mutually orthogonal tumor diameters.
Low-strength electric field stimulation: To subject tumors to LEFs, stainless steel needles were used as electrodes. Tumors 5 mm in diameter (about 65 mm^3) were transfixed by electrode needles, with one cathode in the center of the tumor and three or four peripheral anodes. The electrodes were connected to an electric pulse generator and to an oscilloscope. Pulsed LEFs with a repetition frequency of 500 Hz and a pulse width of 180 μs were applied at 20, 40, 60 and 70 V/cm for a duration 12 min or 20 min. The electric pulses were administered 2-4 min following chemotherapeutic drug administration. Mice were anesthetized 10 min before the procedure.
Chemotherapeutic agents: Bleomycin (Sigma Israel Chemicals Ltd., Israel; Megapharm Ltd., Israel) was kept at a temperature of 2-8° C., and was dissolved in pyrogen-free PBS to a concentration enabling dosages of 50 U/kg body weight prior to use. BCNU was administered at a dosage of 35 mg/kg body weight, and 5-FU (Abic, Israel) was used at a dose of 100 mg/kg body weight.
Anesthesia: Mice were anesthetized using an anesthetic cocktail comprising a dose of imalgen at 100 mg/kg body weight and xylazine hydrochloride at 6.25 mg/kg body weight dissolved in PBS injected intraperitoneally in a volume of 0.25 ml per mouse 10 min prior to LEF treatment.
Statistical analysis: Survival times (Kaplan-Meir test), survival comparisons between groups (Mantel-Cox test), and tumor volume differences between groups were plotted using StatSoft “Statistica” statistical software.
Effect of LEF duration and strength on potentiation of bleomycin for treatment of colon carcinoma: In order to determine the optimal LEFCT-EC/bleomycin therapy for treatment of colon cancer, mice bearing CT-26 tumors were treated with LEFs of 40 V/cm for 12 min, and 20 V/cm for 12 or 20 min with or without administration of bleomycin, and survival was analyzed.

bleomycin
survival time, Mean ([1]; LEF-chemotherapy with the drug): 85.3 | survival time, Median ([1]; LEF-chemotherapy with the drug): 64.5 | cure rate ([1]; LEF-chemotherapy, intratumoral taxol 20 mg/kg or bleomycin 30 U/kg, 180 days after tumor inoculation): 30% | survival time, Mean ([1]; drug alone, intratumoral): 40.2 | survival time, Median ([1]; drug alone, intratumoral): 37.5 | survival with bleomycin + LEF compared with LEF alone (CT-26 colon carcinoma; LEF 40 V/cm 12 min, 20 V/cm 12 or 20 min, all combinations tested): greatly enhanced | cure rate (CT-26 colon carcinoma; LEFCT-EC: drug + LEF 40 V/cm 12 min, 5 mm tumors): 33% | tumor size with drug + LEF relative to drug only (CT-26 colon carcinoma; after 21 days): less than half the size | survival rate (CT-26 colon carcinoma; bleomycin intratumoral + LEF 40 V/cm 12 min, after 60 days, unchanged until day 120): 33% | time after which half the mice died (CT-26 colon carcinoma; drug alone, no LEF, intratumoral injection (5-FU intratumoral or intravenous), 5 mm tumors): about 51 days
